In patent publication US20220387412A1, “Novel Superebastine Against Therapy Resistant Prostate Cancer” (University of Kentucky Research Foundation, priority 2019, published 2022):
“Also recorded” adds a separate entry of the source.

Columns and labels:
Assay type in all cases: cell-based
PC-3 cells = experiment: Resazurin cell viability assay, PC-3; conditions: for cell viability (resazurin): PC-3, 10 μM
Protocol: (§1) Mean+SD shown. (*) Asterisk indicates […] by the Student's t-test.
(§2) Cell viability was then measured by resazurin assays. […] On the other hand, Super-EBS (10 μM) was effective in 24 hours. […] Mean+SD are shown. P<0.01 by Student's t-test.

[1] = test system: CWR22Rv1 ENZ-sensitive cells; experiment: Resazurin cell viability assay, CWR22Rv1 ENZ-sensitive; conditions: CWR22Rv1 ENZ-sensitive, 24, 48 and 72 hours
Protocol: as §1, §2

[2] = test system: CWR22Rv1 ENZ-resistant cells; experiment: Resazurin cell viability assay, CWR22Rv1 ENZ-resistant; conditions: CWR22Rv1 ENZ-resistant, 24, 48 and 72 hours
Protocol: as §1, §2

prostate cancer cells = experiment: Growth inhibition / cell death of prostate cancer cell cultures; conditions: for cell death: within 24 h
Description: RAGE activation promotes proliferation, invasive bone homing, and metastasis of PCa cells.

[3] = test system: CWR22Rv1 ENZ-sensitive cells; experiment: ICC for active caspase 3 (apoptosis), CWR22Rv1 ENZ-sensitive; conditions: 0.1-5 μM, 24 hours
Protocol: (§3) FIGS. 5A-B show images and graphs illustrating that Super-EBS causes cell death by the activation of an apoptotic cascade. (A) AR-v7 expressing CwR22Rv1 and CwR22Rv1 Enz(R) cells were treated with Super-EBS (0.1-5 μM) in 10% FBS for 24 h and tested by ICC analysis for cleaved caspase 3 (green) and DAPI (blue). (B) Quantitative representation of ICC data. *P<0.05; **P<0.01 by Student's t test.
(§4) After determining that the cells were sensitive to Super-EBS, they were tested to determine whether Super-EBS inhibited cell viability by inducing apoptosis. CWR22Rv1 ENZ-sensitive and CWR22Rv1 ENZ-resistant cell lines were treated with vehicle, 0.1-, 0.5-, 1- and 5-μM of Super-EBS for 24 hours. The cells were then subjected to immunocytochemical (ICC) analysis for active caspase 3 (green fluorescence) to detect apoptotic cells, and 4, 6-diamidino-2-phenylindole (DAPI) staining (blue fluorescence) to reveal the cell nucleus. Cells were scored for apoptosis under a confocal microscope and percent apoptosis was calculated. […] Mean+SD are shown. P<0.01 by Student's t-test.
(§5) Super-EBS causes cell death by the activation of an apoptotic cascade. […] CwR22Rv1 Enz(R) cells were also tested with Super-EBS for 24 h and subjected to FACS analysis using Annexin V and propidium iodide (PI) staining.

[4] = test system: CWR22Rv1 ENZ-resistant cells; experiment: ICC for active caspase 3 (apoptosis), CWR22Rv1 ENZ-resistant; conditions: 0.1-5 μM, 24 hours
Protocol: as §3, §4, §5

CwR22Rv1 Enz(R) cells = experiment: Annexin V-PI staining and FACS analysis for apoptotic cells; conditions: 2 or 4 μM, 24 h
Protocol: CwR22Rv1 Enz(R) cells were treated with Super-EBS (2 or 4 μM) for 24 h in 10% FBS containing medium. Live cells were subjected to Annexin V-PI staining and FACS analysis for apoptotic cells. The percentage on the figure indicates the percentage of cells post treatment.
as §5

C4-2 cells = experiment: Western blot for γH2AX (Ser139), DNA double stranded breaks, C4-2; conditions: C4-2, 0.5 or 1 μM, 24 h
Protocol: (§6) FIGS. 7A-B show images illustrating that Super-EBS induces DNA damage in AR-positive prostate cancer cells. (A) C4-2 cells were treated with Super-EBS (0.5 or 1 μM) for 24 h in 10% FBS containing medium. […] Lysates were probed for YH2AX (Ser139 phosphorylation), a marker for DSB by Western blot analysis.
(§7) Super-EBS induces DNA damage in AR-positive prostate cancer cells. Lysates from AR-positive androgen-independent C4-2 cells (FIG. 7A) or androgen-dependent LNCaP cells (FIG. 7B) were treated with Super-EBS and subjected to Western blot analysis for γH2AX (Ser 139) positivity to detect DNA double stranded breaks (DSB). Super-EBS induced DSBs in both C4-2 and LNCaP cells (FIGS. 7A-B).

LNCaP cells = experiment: Western blot for γH2AX (Ser139), DNA double stranded breaks, LNCaP; conditions: 0.25 or 0.5 μM, 24 h
Protocol: as §6, §7

[5] = test system: C4-2, C4-2R, LNCaP and M49C cells; experiment: Resazurin cell viability assay, AR-positive cells and drug resistant counterparts; conditions: 24 h, 10% FBS
Protocol: FIGS. 4A-B show graphs illustrating viability of androgen independent and androgen dependent cells treated with Super-EBS. (A) Androgen independent AR-positive C4-2 and C4-2R were treated with Super-EBS and vehicle control for 24 h in 10% FBS. Cell viability was measured by Resazurin assay. (B) Androgen dependent AR-positive LNCaP and M49C were treated under same condition and cell viability by Resazurin assay. *P<0.05; ** P<0.01 by the Student's t test.
In particular, cell viability of the AR-positive prostate cancer cells and their drug resistant counterparts was lower for the cells treated with Super-EBS.

[6] = test system: CwR22Rv1 Par-4 knock-down cells; experiment: γH2AX ICC / Western blot in Par-4 wild type and knock-down cells; conditions: CwR22Rv1, 0.25 μM, 24 h
Protocol: FIGS. 8A-B show images illustrating that DNA damage induced by Super-EBS is mediated by Par-4. (A) CwR22Rv1 Par-4 wild type and knock-down cells were treated with Super-EBS (0.25 μM) for 24 h in medium containing 10% FBS, and then subjected to ICC for Par-4 (green) or YH2AX (Ser139) (red). (B) Western blot analysis for YH2AX, Par-4 and GAPDH was performed on lysates of Par-4 wild type (left) and knock-down (right) prostate cancer cells treated with Super-EBS (0.25 μM) for 24 h.
DNA damage induced by Super-EBS is mediated by Par-4.

Row | Compound | cell viability (resazurin) (PC-3 cells; 24 hours) | cell viability (resazurin), effective concentration (PC-3 cells; PC-3, 24, 48 and 72 hours) | cell viability (resazurin), effective concentration [1] | cell viability (resazurin), effective concentration [2] | concentration inducing apoptosis and growth inhibition (prostate cancer cells; ENZ-resistant as well as ENZ-sensitive prostate cancer cells) | cell death (prostate cancer cells; ENZ-resistant prostate cancer cell cultures) | cell death (prostate cancer cells; ENZ-sensitive prostate cancer cell cultures) | potency in killing cells compared with EBS (prostate cancer cells; parental and ENZ-resistant prostate cancer cell lines) | apoptosis (active caspase 3 ICC) relative to vehicle control [3] | apoptosis (active caspase 3 ICC) relative to vehicle control [4] | cells in the early and late stages of apoptosis (Annexin V/PI FACS) (CwR22Rv1 Enz(R) cells) | DNA double stranded breaks (γH2AX Ser139) (C4-2 cells) | DNA double stranded breaks (γH2AX Ser139) (LNCaP cells) | cytotoxic effect compared with EBS ([5]; 10 μM) | susceptibility of LNCaP and M49C versus C4-2 and C4-2R to cytotoxic action [5] | γH2AX positivity after Par-4 knock-down [6] | cell viability (resazurin) (PC-3 cells; 72 hours)
1 | CC(C)(C)c1ccc(/C(CCCN2CCC(OC(c3ccccc3)c3ccccc3)CC2)=N\C(=N)N)cc1 [Super-EBS] | effective | effective at nanomolar concentrations | effective at nanomolar concentrations | effective at nanomolar concentrations | nanomolar concentrations | 95-98% | 95-98% | more potent than EBS | significantly higher levels; also recorded: dose dependent increase in apoptotic cells | significantly higher levels; also recorded: dose dependent increase in apoptotic cells | dose dependent increase | induced DSBs | induced DSBs | more pronounced than EBS | more susceptible | decrease in the YH2AX positivity | –
2 | CC(C)(C)c1ccc(C(=O)CCCN2CCC(OC(c3ccccc3)c3ccccc3)CC2)cc1 [EBS, 4-[4-(Diphenylmethoxy)-1-piperidinyl]-1-[4-(2-methyl-2-propanyl)phenyl]-1-butanone, reference compound] | – | – | – | – | – | – | – | – | – | – | – | – | but not EBS induced significant amount of DSBs | – | – | – | sensitive
